The target of one data set is T1, FXR (Homo sapiens, UniProt Q96RI1).
T1 construct: 5 μL of 20 nM FXR-LBD Complete Coregulator buffer G; purchased ThermoFisher PV4833
T1 sequence (Q96RI1 262-486 limits assumed): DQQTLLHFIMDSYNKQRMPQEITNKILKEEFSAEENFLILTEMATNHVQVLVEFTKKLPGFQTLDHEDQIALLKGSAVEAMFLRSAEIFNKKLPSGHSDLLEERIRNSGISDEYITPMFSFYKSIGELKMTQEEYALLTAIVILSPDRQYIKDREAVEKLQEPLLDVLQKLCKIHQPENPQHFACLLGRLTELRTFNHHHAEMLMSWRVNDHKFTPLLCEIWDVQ
The experiment in a line: FXR antagonist screening by TR-FRET (LanthaScreen TR-FRET FXR co-activation assay kit). The data set is classed as biochemical. Conditions: TR-FRET with CDCA, geometric means of at least two independent runs. In a few lines: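 FXR-LBD (20 nM working solution) mixed with compound, CDCA (200 μM working solution) as agonist, Fluorescein-SRC2-2 and Tb-anti-GST antibody in Coregulator buffer G; 10 h at room temperature. Coactivator recruitment read by TR-FRET, triplicate wells.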
For orientation: In TR-FRET formats the signal depends on donor and acceptor labels being close together.

Setting [1] is: Table 1.1, FXR antagonistic activity.
The mark [2] stands for this setting: Table 1.2, FXR antagonistic activity.

Some results are limits rather than exact numbers.

One may read the IC50 as the concentration that inhibits the measured activity by half. In general, melting point refers to the temperature of the solid-liquid transition. With `Cc1c(C(=O)O)oc2ccc(S(=O)(=O)N(CCc3ccccc3)Cc3ccccc3F)cc12` [Example F27-S14, 3-methyl-5-(N-(2-fluorobenzyl)-N-phenethylsulfamoyl)benzofuran-2-carboxylic acid], the melting point is > 380 °C (dec.). This compound displayed an IC50 at FXR (setting [1]) of 0.1 to 10 µM.
The like results for `Cc1c(C(=O)O)oc2ccc(S(=O)(=O)N(CCc3ccccc3)Cc3ccccc3Cl)cc12` [Example F27-S15, 3-methyl-5-(N-(2-chlorobenzyl)-N-phenethylsulfamoyl)benzofuran-2-carboxylic acid] were, in that order, 156 to 157 °C and 10 to 50 µM.
Consider `Cc1c(C(=O)O)oc2ccc(S(=O)(=O)N(CCc3ccccc3)Cc3ccccc3Br)cc12` [Example F27-S16, 3-methyl-5-(N-(2-bromobenzyl)-N-phenethylsulfamoyl)benzofuran-2-carboxylic acid], for which the melting point was in the range of 170 to 171 °C. Moreover, the IC50 on FXR (setting [1]) fell in the range of 10 to 50 µM.
`Cc1ccccc1CN(CCc1ccccc1)S(=O)(=O)c1ccc2oc(C(=O)O)c(C)c2c1` [Example F27-S17, 3-methyl-5-(N-(2-methylbenzyl)-N-phenethylsulfamoyl)benzofuran-2-carboxylic acid] returned a melting point of 199 to 200 °C. The compound also came in with an IC50 against FXR (setting [1]) of 10 to 50 µM.
The like results for `Cc1c(C(=O)O)oc2ccc(S(=O)(=O)N(CCc3ccccc3)Cc3ccccc3C(F)(F)F)cc12` [Example F27-S18, 3-methyl-5-(N-(2-trifluoromethylbenzyl)-N-phenethylsulfamoyl)benzofuran-2-carboxylic acid] were, in that order, 138 to 139 °C and 10 to 50 µM.
Consider `Cc1c(C(=O)O)oc2ccc(S(=O)(=O)N(CCc3ccccc3)Cc3ccccc3[N+](=O)[O-])cc12` [Example F27-S19, 3-methyl-5-(N-(2-nitrobenzyl)-N-phenethylsulfamoyl)benzofuran-2-carboxylic acid], for which the melting point was in the range of 180 to 181 °C. Besides, at FXR (setting [1]), the half-maximal inhibitory concentration (IC50) is 10 to 50 µM.
As to `Cc1c(C(=O)O)oc2ccc(S(=O)(=O)N(CCc3ccccc3)Cc3cccc(F)c3)cc12` [Example F27-S20, 3-methyl-5-(N-(3-fluorobenzyl)-N-phenethylsulfamoyl)benzofuran-2-carboxylic acid], the melting point was > 380 °C (dec.). This compound returned an IC50 on FXR (setting [1]) of 10 to 50 µM.
The like results for `Cc1c(C(=O)O)oc2ccc(S(=O)(=O)N(CCc3ccccc3)Cc3cccc(Cl)c3)cc12` [Example F27-S21, 3-methyl-5-(N-(3-chlorobenzyl)-N-phenethylsulfamoyl)benzofuran-2-carboxylic acid] were, in that order, > 380 °C (dec.) and 10 to 50 µM.
As for `Cc1c(C(=O)O)oc2ccc(S(=O)(=O)N(CCc3ccccc3)Cc3cccc(Br)c3)cc12` [Example F27-S22, 3-methyl-5-(N-(3-bromobenzyl)-N-phenethylsulfamoyl)benzofuran-2-carboxylic acid], the melting point is > 380 °C (dec.). In addition, the half-inhibitory concentration (IC50) against FXR (setting [1]) is 10 to 50 µM.
`Cc1cccc(CN(CCc2ccccc2)S(=O)(=O)c2ccc3oc(C(=O)O)c(C)c3c2)c1` [Example F27-S23, 3-methyl-5-(N-(3-methylbenzyl)-N-phenethylsulfamoyl)benzofuran-2-carboxylic acid]: the melting point is > 380 °C (dec.). Also, at FXR (setting [1]), the 50% inhibitory concentration (IC50) is 10 to 50 µM.
For `Cc1c(C(=O)O)oc2ccc(S(=O)(=O)N(CCc3ccccc3)Cc3cccc(C(F)(F)F)c3)cc12` [Example F27-S24, 3-methyl-5-(N-(3-trifluoromethylbenzyl)-N-phenethylsulfamoyl)benzofuran-2-carboxylic acid] the same measures were 188 to 189 °C and 50 to 100 µM.
For `Cc1c(C(=O)O)oc2ccc(S(=O)(=O)N(CCc3ccccc3)Cc3cccc([N+](=O)[O-])c3)cc12` [Example F27-S25, 3-methyl-5-(N-(3-nitrobenzyl)-N-phenethylsulfamoyl)benzofuran-2-carboxylic acid] the same measures were > 380 °C (dec.) and 10 to 50 µM.
For `Cc1c(C(=O)O)oc2ccc(S(=O)(=O)N(CCc3ccccc3)Cc3cccc(-c4ccccc4)c3)cc12` [Example F27-S26, 3-methyl-5-(N-([1,1′-biphenyl]-3-ylmethyl)-N-phenethylsulfamoyl)benzofuran-2-carboxylic acid] the same measures were > 380 °C (dec.) and 10 to 50 µM.
`Cc1c(C(=O)O)oc2ccc(S(=O)(=O)N(CCc3ccccc3)Cc3cccc(Oc4ccccc4)c3)cc12` [Example F27-S27, 3-methyl-5-(N-(3-phenoxybenzyl)-N-phenethylsulfamoyl)benzofuran-2-carboxylic acid] yielded a melting point greater than 183 °C. On FXR (setting [1]), this compound had an IC50 of 10 to 50 µM.
The compound `Cc1c(C(=O)O)oc2ccc(S(=O)(=O)N(CCc3ccccc3)Cc3ccc(F)cc3)cc12` [Example F27-S28, 3-methyl-5-(N-(4-fluorobenzyl)-N-phenethylsulfamoyl)benzofuran-2-carboxylic acid] showed a melting point of 188 to 189 °C. Besides, the IC50 at FXR (setting [1]) lay in the range of 10 to 50 µM.
The compound `Cc1c(C(=O)O)oc2ccc(S(=O)(=O)N(CCc3ccccc3)Cc3ccc(Cl)cc3)cc12` [Example F27-S29, 3-methyl-5-(N-(4-chlorobenzyl)-N-phenethylsulfamoyl)benzofuran-2-carboxylic acid] displayed a melting point of 172 to 173 °C. On FXR (setting [1]), this compound displayed a concentration for half-maximal inhibition (IC50) of 10 to 50 µM.
The like results for `Cc1ccc(CN(CCc2ccccc2)S(=O)(=O)c2ccc3oc(C(=O)O)c(C)c3c2)cc1` [Example F27-S31, 3-methyl-5-(N-(4-methylbenzyl)-N-phenethylsulfamoyl)benzofuran-2-carboxylic acid] were, in that order, > 380 °C (dec.) and 10 to 50 µM.
For `Cc1c(C(=O)O)oc2ccc(S(=O)(=O)N(CCc3ccccc3)Cc3ccc(C(F)(F)F)cc3)cc12` [Example F27-S32, 3-methyl-5-(N-(4-(trifluoromethyl)benzyl)-N-phenethylsulfamoyl)benzofuran-2-carboxylic acid] the same measures were greater than 192 °C and 10 to 50 µM.
With `CCOC(=O)c1sc2ccc(S(=O)(=O)N(CCc3ccccc3[N+](=O)[O-])c3ccccc3N3CCN(C(=O)c4sccc4Br)CC3)cc2c1C` [Example M10-174], the IC50 at FXR (setting [2]) fell in the range of 50 to 100 µM.
The compound `CCOC(=O)c1sc2ccc(S(=O)(=O)N(CCCc3ccccc3)c3ccccc3N3CCN(C(=O)c4sccc4Br)CC3)cc2c1C` [Example M10-175, ethyl 5-(N-(2-(4-(3-bromothiophene-2-carbonyl)piperazin-1-yl)phenyl)-N-(3-phenylpropyl)sulfamoyl)-3-methylbenzothiophene-2-carboxylate] yielded a half-inhibitory concentration (IC50) on FXR (setting [2]) of 50 to 100 µM.
On the same count and under the same terms, for `CCOC(=O)c1sc2ccc(S(=O)(=O)Nc3ccccc3N3CCN(C(=O)c4sccc4Br)CC3)cc2c1C` [Example M10-176, Ethyl 5-(N-(2-(4-(3-bromothiophene-2-carbonyl)piperazin-1-yl)phenyl)sulfamoyl)-3-toluothiophene-2-carboxylate] the value was 50 to 100 µM.
On the same count and under the same terms, for `CCOC(=O)c1sc2ccc(S(=O)(=O)N(CCc3ccc(OC)cc3)c3ccccc3N3CCN(C(=O)c4sccc4Br)CC3)cc2c1C` [Example M10-177, Ethyl 5-(N-(2-(4-(3-bromothiophene-2-formyl)piperazin-1-yl)phenyl)-N-(4-methoxyphenethyl)sulfamoyl)3-methylbenzothiophene-2-carboxylate] the value was 50 to 100 µM; for `CCOC(=O)c1c(C)c2cc(S(=O)(=O)N(CCc3ccccc3)c3ccccc3N3CCN(C(=O)c4sccc4Br)CC3)ccc2n1C` [Example M10-179, Ethyl 5-(N-(2-(4-(3-bromothiophene-2-carbonyl)piperazin-1-yl)phenyl)-N-phenethylsulfamoyl)-1,3-dimethyl-1H-indole-2-carboxylate], 50 to 100 µM.
`CCOC(=O)c1sc2ccc(S(=O)(=O)N(CCC3CCCCC3)c3ccccc3N3CCN(C(=O)c4sccc4Br)CC3)cc2c1C` [Example M10-180, Ethyl 5-(N-(2-(4-(3-bromothiophene-2-carbonyl)piperazin-1-yl)phenyl)-N-(2-cyclohexylethyl)sulfamoyl)-3-methylbenzothiophene-2-carboxylate]: at FXR (setting [2]), the half-maximal inhibitory concentration (IC50) is 50 to 100 µM.
Same read-out and setting: as for `CCOC(=O)c1sc2ccc(S(=O)(=O)N(Cc3ccccc3)c3ccccc3N3CCN(C(=O)c4sccc4Br)CC3)cc2c1C` [Example M10-181, Ethyl 5-(N-benzyl-N-(2-(4-(3-bromothiophene-2-carbonyl)piperazin-1-yl)phenyl)sulfamoyl)-3-methylbenzothiophene-2-carboxylate], the figure is 50 to 100 µM; as for `CCOC(=O)c1sc2ccc(S(=O)(=O)N(C)c3ccccc3N3CCN(C(=O)c4sccc4Br)CC3)cc2c1C` [Example M10-182, Ethyl 5-(N-(2-(4-(3-bromothiophene-2-carbonyl)piperazin-1-yl)phenyl)-N-methylsulfamoyl)-3-methylbenzothiophene-2-carboxylate], 50 to 100 µM.
Same read-out and setting: for `CCOC(=O)c1sc2ccc(S(=O)(=O)N(CCc3cccs3)c3ccccc3N3CCN(C(=O)c4sccc4Br)CC3)cc2c1C` [Example M10-183, Ethyl 5-(N-(2-(4-(3-bromothiophene-2-carbonyl)piperazin-1-yl)phenyl)-N-(2-(thiophen-2-yl)ethyl)sulfamoyl)-3-methylbenzothiophene-2-carboxylate] the value was 50 to 100 µM.

Source of the values: patent publication US20240239775A1, “FXR REGULATOR, PREPARATION METHOD THEREFOR, PHARMACEUTICAL COMPOSITION THEREOF AND USE THEREOF” (QINGDAO RUIJI MEDICAL TECHNOLOGY CO., LTD., priority 2021, published 2024).
